Read-outs that look alike come from different tables or passages of the source. One block for each compound: values may come before it.
Tests used:
[1] = biological target: Chicken α10 homomeric nAChR (Gallus gallus, UniProt Q9I8C7); test: Two-electrode voltage clamp, recombinant homomeric receptor in X. laevis oocytes; format: cell-based; conditions: for EC50: mean ± SEM
Description: (§1) For expression studies, rat and chicken α9 and α10 nAChR subunits subcloned into a modified pGEMHE vector were used. Capped cRNAs were in vitro transcribed from linearized plasmid DNA templates using RiboMAX™ Large Scale RNA Production System (Promega, Madison, WI, USA). The maintenance of X. laevis and the preparation and cRNA injection of stage V and VI oocytes have been described in detail elsewhere (Verbitsky et al., [2000]). Typically, oocytes were injected with 50 nl of RNase-free water containing 0.01–1.0 ng of cRNA (at a 1:1 molar ratio for heteromeric receptors) and maintained in Barth’s solution [in mM: NaCl 88, Ca(NO3)2 0.33, CaCl2 0.41, KCl 1, MgSO4 0.82, NaHCO3 2.4, HEPES 10] at 18°C. Electrophysiological recordings were performed 2–6 days after cRNA injection under a two-electrode voltage clamp with an Oocyte Clamp OC-725B or C amplifier (Warner Instruments Corporation, Hamden, CT, USA). Recordings were filtered at a corner frequency of 10 Hz using a 900 BT Tunable Active Filter (Frequency Devices Inc., Ottawa, IL, USA). Data acquisition was performed using a Patch Panel PP-50 LAB/1 interphase (Warner Instruments Corp., Hamden, CT, USA) at a rate of 10 points per second. Both voltage and current electrodes were filled with 3 M KCl and had resistances of ~1 MΩ. Data were analyzed using Clampfit from the pClamp 6.1 software. During electrophysiological recordings, oocytes were continuously superfused (~15 ml/min) with normal frog saline composed of: 115 mM NaCl, 2.5 mM KCl, 1.8 mM CaCl2, and 10 mM HEPES buffer, pH 7.2. Drugs were added to the perfusion solution for the application. The membrane potential was clamped to −70 mV. To minimize activation of the endogenous Ca^2+ sensitive chloride current (Elgoyhen et al., [2001]), all experiments were performed in oocytes incubated with the Ca^2+ chelator 1,2-bis (2-aminophenoxy) ethane-N,N,N’,N’-tetraacetic acid-acetoxymethyl ester (BAPTA-AM, 100 μM) for 3 h before electrophysiological recordings. […] The mean and SEM of peak current responses are presented. Agonist concentration-response curves were iteratively fitted, using Prism 6 software (GraphPad Software Inc., La Jolla, CA, USA), with the equation: I/Imax = A^nh/(A^nH + EC50^nH), where I is the peak inward current evoked by agonist at concentration A; Imax is the current evoked by the concentration of agonist eliciting a maximal response; EC50 is the concentration of agonist inducing half-maximal current response, and nH is the Hill coefficient. An equation of the same form was used to analyze the concentration dependence of antagonist induced blockage.

[2] = biological target: Chicken α9 homomeric nAChR (Gallus gallus, UniProt Q9PTS8); test: as above; format: cell-based; conditions: for EC50: mean ± SEM
Description: as §1

Rat α9 homomeric nAChR = biological target: T1, Rat α9 homomeric nAChR (Rattus norvegicus, UniProt P43144); test: as above; format: cell-based
T1 construct: expressed in transfected cells; host or cells: Xenopus laevis oocytes (cRNA injection)
Description: as §1

Chicken α9α10 nAChR [3] = biological target: T2, Chicken α9α10 nAChR (Gallus gallus, UniProt Q9I8C7+Q9PTS8); test: Two-electrode voltage clamp, recombinant heteromeric receptor in X. laevis oocytes; format: cell-based; conditions: for Emax: read-out: Efficacy (maximal response as % of that elicited by 1 mM ACh), Chicken α9α10
T2 construct: expressed in transfected cells; host or cells: Xenopus laevis oocytes (cRNA injection, 1:1 molar ratio)
Description: as §1

[4] = biological target: rat α9–chicken α10 hybrid receptor (Rα9-Cα10) (UniProt P43144+Q9I8C7); test: Two-electrode voltage clamp, hybrid receptor in X. laevis oocytes; format: cell-based; conditions: mean ± SEM
Description: as §1

[5] = biological target: T3, rat α9α10x chimeric receptor (Rattus norvegicus, UniProt P43144+Q9JLB5, A264D/A292P/A308T/A312F/A328P/E329N/F253L/F325Y/H335A/I246L/I275V/I289S/I304M/I310V/I323L/L250F/L309M/M279L/M319L/N295S/R331H/S258A/S293A/V320I/Y260H); test: Two-electrode voltage clamp, chimeric receptor in X. laevis oocytes; format: cell-based
T3 construct: expressed in transfected cells; host or cells: Xenopus laevis oocytes (cRNA injection)
Description: as §1
The α10W55T mutant subunit was produced as previously described (Boffi et al., [2017]) using Quick change XL II kit (Stratagene, La Jolla, CA, USA). […]

Chicken α9α10 nAChR [6] = biological target: T2, Chicken α9α10 nAChR; design: method as in Elgoyhen et al., 2001; Lipovsek et al., 2012; conditions: previous work, ref Elgoyhen et al., 2001, Lipovsek et al., 2012; cited from earlier work
Rat α9α10 nAChR = biological target: T4, Rat α9α10 nAChR (Rattus norvegicus, UniProt P43144+Q9JLB5); test: Two-electrode voltage clamp, recombinant heteromeric receptor in X. laevis oocytes; format: cell-based; conditions: for Efficacy (maximal response as % of that elicited by 1 mM ACh) / EC50: Rat α9α10; for Efficacy (maximal response as % of that elicited by 1 mM ACh) / EC50 / Emax: mean ± SEM; for EC50: −70 mV, BAPTA-AM treated oocytes; for Emax: read-out: Efficacy (maximal response as % of that elicited by 1 mM ACh), Rat α9α10
T4 construct: expressed in transfected cells; host or cells: Xenopus laevis oocytes (cRNA injection, 1:1 molar ratio)
Description: as §1

[7] = biological target: chicken α9–rat α10 hybrid receptor (Cα9-Rα10) (UniProt Q9JLB5+Q9PTS8); test: Two-electrode voltage clamp, hybrid receptor in X. laevis oocytes; format: cell-based; conditions: mean ± SEM
Description: as §1

[8] = biological target: rat α9α10W55T receptor (Rα9-Rα10W55T) (Rattus norvegicus, UniProt P43144+Q9JLB5, W81T); test: Two-electrode voltage clamp, mutant receptor in X. laevis oocytes; format: cell-based; conditions: mean ± SEM
Description: For expression studies, rat and chicken α9 and α10 nAChR subunits subcloned into a modified pGEMHE vector were used. Capped cRNAs were in vitro transcribed from linearized plasmid DNA templates using RiboMAX™ Large Scale RNA Production System (Promega, Madison, WI, USA). The maintenance of X. laevis and the preparation and cRNA injection of stage V and VI oocytes have been described in detail elsewhere (Verbitsky et al., [2000]). Typically, oocytes were injected with 50 nl of RNase-free water containing 0.01–1.0 ng of cRNA (at a 1:1 molar ratio for heteromeric receptors) and maintained in Barth’s solution [in mM: NaCl 88, Ca(NO3)2 0.33, CaCl2 0.41, KCl 1, MgSO4 0.82, NaHCO3 2.4, HEPES 10] at 18°C. Electrophysiological recordings were performed 2–6 days after cRNA injection under a two-electrode voltage clamp with an Oocyte Clamp OC-725B or C amplifier (Warner Instruments Corporation, Hamden, CT, USA). Recordings were filtered at a corner frequency of 10 Hz using a 900 BT Tunable Active Filter (Frequency Devices Inc., Ottawa, IL, USA). Data acquisition was performed using a Patch Panel PP-50 LAB/1 interphase (Warner Instruments Corp., Hamden, CT, USA) at a rate of 10 points per second. Both voltage and current electrodes were filled with 3 M KCl and had resistances of ~1 MΩ. Data were analyzed using Clampfit from the pClamp 6.1 software. […]

chicken short hair cells = test: tissue or blood; conditions: Gallus gallus, read-out: Efficacy (maximum response normalized to maximal peak response to 3 mM ACh)
Description: (§2) Chicken auditory organ (basilar papilla) was dissected from the temporal bone of embryonic chickens (white Leghorns either sex, 17–20 days in ovo). The tegmentum vasculosum was removed and the tectorial membrane was stripped from the basilar papilla with most of the short hair cells (SHCs) still attached. This “tectorial preparation” was then inverted and secured in the recording chamber by spring clips. SHCs were recorded in a region 25–50% the distance from the apical (lagenar) to the basal tip of the basilar papilla of the chicken. Apical turns of the organ of Corti were excised from BALB/c mice of either sex between postnatal day 11 (P11) and P13 (around the onset of hearing in altricial rodents). At this age, outer hair cells (OHCs) are already innervated by the MOC fibers (Pujol et al., [1998]; Simmons, [2002]). The tectorial membrane was removed and the organ of Corti was positioned under an insect pin affixed to a cover-slip with a drop of Sylgard.
(§3) Basilar papilla and cochlear preparations were placed into a chamber on the stage of an upright microscope (Olympus BX51WI, Center Valley, PA, USA) at room temperature and used within 2 h. Cells were visualized on a monitor via a water immersion objective (60× magnification), differential interference contrast optics, and a CCD camera (Andor iXon 885, Belfast, UK). […]

mouse outer hair cells = test: tissue or blood; conditions: read-out: Efficacy (maximum response normalized to maximal peak response to 3 mM ACh)
Description: as §2, §3

[9] = Chicken α9α10, mean ± SEM, read-out: EC50
[10] = α9α10x chimeric receptor, mean ± SEM

Chain of Chicken α10 homomeric nAChR (Q9I8C7 27-452): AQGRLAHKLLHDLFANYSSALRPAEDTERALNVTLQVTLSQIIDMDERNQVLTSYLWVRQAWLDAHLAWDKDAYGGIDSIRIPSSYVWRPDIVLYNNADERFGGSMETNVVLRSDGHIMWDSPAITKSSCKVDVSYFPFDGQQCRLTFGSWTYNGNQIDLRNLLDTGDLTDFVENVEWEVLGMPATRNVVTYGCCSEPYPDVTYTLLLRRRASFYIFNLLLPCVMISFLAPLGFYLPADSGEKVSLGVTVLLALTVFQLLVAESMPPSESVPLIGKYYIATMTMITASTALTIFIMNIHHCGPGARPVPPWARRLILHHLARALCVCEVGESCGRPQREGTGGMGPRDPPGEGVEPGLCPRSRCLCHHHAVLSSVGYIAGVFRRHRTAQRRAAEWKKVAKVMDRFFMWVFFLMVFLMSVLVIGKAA
Chain of rat α9–chicken α10 hybrid receptor (Rα9-Cα10) (P43144 26-479): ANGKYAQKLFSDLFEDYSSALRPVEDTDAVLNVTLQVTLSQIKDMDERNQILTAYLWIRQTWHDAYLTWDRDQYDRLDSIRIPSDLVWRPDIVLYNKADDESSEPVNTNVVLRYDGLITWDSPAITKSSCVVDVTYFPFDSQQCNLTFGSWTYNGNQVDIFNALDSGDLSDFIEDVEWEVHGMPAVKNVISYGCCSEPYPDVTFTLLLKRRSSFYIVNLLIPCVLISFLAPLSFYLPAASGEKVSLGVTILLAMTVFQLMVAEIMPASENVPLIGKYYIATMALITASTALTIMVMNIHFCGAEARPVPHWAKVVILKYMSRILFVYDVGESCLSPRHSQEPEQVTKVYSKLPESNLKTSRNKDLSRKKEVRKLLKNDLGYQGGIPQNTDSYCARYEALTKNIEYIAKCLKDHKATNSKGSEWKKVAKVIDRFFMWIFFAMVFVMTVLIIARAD
Chain of rat α9–chicken α10 hybrid receptor (Rα9-Cα10) (Q9I8C7 27-452): as the sequence (Q9I8C7 27-452) above
T4 sequence (P43144 26-479): as the sequence (P43144 26-479) above
T4 sequence (Q9JLB5 25-447): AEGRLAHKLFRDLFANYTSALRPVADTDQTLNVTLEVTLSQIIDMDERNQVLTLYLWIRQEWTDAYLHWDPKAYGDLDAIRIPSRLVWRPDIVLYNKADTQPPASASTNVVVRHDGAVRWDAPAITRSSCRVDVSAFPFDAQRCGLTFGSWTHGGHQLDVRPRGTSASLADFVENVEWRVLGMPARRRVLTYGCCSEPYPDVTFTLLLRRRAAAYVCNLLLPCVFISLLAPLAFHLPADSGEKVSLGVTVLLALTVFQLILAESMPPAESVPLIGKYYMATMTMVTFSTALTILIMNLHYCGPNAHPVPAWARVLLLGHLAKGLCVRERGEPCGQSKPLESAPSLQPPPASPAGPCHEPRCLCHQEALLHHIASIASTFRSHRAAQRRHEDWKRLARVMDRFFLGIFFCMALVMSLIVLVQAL
T3 sequence (P43144 26-479, stated change not applied): as the sequence (P43144 26-479) above
T3 sequence (P43144+Q9JLB5 fused with the stated changes): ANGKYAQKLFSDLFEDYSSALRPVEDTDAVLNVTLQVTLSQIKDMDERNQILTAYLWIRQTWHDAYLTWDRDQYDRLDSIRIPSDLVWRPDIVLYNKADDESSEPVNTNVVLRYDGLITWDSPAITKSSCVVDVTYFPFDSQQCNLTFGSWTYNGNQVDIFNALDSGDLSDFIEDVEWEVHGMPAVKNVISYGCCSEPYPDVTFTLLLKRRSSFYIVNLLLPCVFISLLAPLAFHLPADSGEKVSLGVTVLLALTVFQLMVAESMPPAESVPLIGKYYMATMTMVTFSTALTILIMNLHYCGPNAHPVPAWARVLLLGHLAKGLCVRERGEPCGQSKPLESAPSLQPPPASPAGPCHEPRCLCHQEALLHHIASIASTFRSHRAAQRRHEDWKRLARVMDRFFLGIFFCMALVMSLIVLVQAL
T1 sequence (P43144 26-479): as the sequence (P43144 26-479) above
T2 sequence (Q9PTS8 28-484): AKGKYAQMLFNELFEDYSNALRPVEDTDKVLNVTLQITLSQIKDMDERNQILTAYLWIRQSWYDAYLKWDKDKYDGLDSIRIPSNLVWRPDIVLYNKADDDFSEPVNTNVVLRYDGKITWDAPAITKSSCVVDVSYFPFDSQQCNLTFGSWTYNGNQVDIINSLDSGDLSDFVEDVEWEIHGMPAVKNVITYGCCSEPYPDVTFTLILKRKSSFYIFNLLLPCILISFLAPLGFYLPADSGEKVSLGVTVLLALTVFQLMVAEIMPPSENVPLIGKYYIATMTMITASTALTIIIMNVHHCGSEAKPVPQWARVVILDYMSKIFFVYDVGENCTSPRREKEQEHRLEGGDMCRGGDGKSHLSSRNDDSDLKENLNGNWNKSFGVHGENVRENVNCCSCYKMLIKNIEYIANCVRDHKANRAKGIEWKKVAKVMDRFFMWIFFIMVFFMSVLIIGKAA
T2 sequence (Q9I8C7 27-452): as the sequence (Q9I8C7 27-452) above
Chain of Chicken α9 homomeric nAChR (Q9PTS8 28-484): as the sequence (Q9PTS8 28-484) above
Chain of chicken α9–rat α10 hybrid receptor (Cα9-Rα10) (Q9PTS8 28-484): as above
Chain of chicken α9–rat α10 hybrid receptor (Cα9-Rα10) (Q9JLB5 25-447): as the sequence (Q9JLB5 25-447) above
Chain of rat α9α10W55T receptor (Rα9-Rα10W55T) (P43144 26-479): as the sequence (P43144 26-479) above
Chain of rat α9α10W55T receptor (Rα9-Rα10W55T) (Q9JLB5 25-447 W81T): as the sequence (Q9JLB5 25-447) above, with W57T counted along it

SMILES: CC(=O)OCC[N+](C)(C)C [ACh, acetylcholine]
EC50 [1]: 2.2 ± 0.7 µM
EC50 [2]: 12.9 ± 1.4 µM
Imax (maximal ACh response) (Rat α9 homomeric nAChR; homomeric rat α9): 14 ± 2 nA
EC50 (Chicken α9α10 nAChR [3]): 13.1 ± 2.6 µM
EC50 ([4]; Rα9-Cα10 hybrid): 11.6 ± 2.9 µM
Imax (maximal ACh response) ([5]; rat α9 co-expressed with α10x): 269 ± 103 nA
EC50 (Chicken α9α10 nAChR [6]): ~10 µM

Efficacy (maximal response as % of that elicited by 1 mM ACh) (Chicken α9α10 nAChR [3]; Chicken α9α10, mean ± SEM): 89.8 ± 7.0 (6) %
EC50 (Chicken α9α10 nAChR [3]; [9]): 150 ± 15 µM
Potency relative to ACh (times lower) (Chicken α9α10 nAChR [3]; chicken α9α10, carbachol EC50 vs ACh): ~12 times
Emax (Chicken α9α10 nAChR [3]; mean ± SEM): 89 ± 7%
Efficacy (maximal response as % of that elicited by 1 mM ACh) (Rat α9α10 nAChR): 75.5 ± 5.2 (5) %
EC50 (Rat α9α10 nAChR): 159 ± 31.5 µM
Potency relative to ACh (times lower) (Rat α9α10 nAChR; rat α9α10, carbachol EC50 vs ACh): ~12 times
Emax (Rat α9α10 nAChR): 75 ± 5%
SMILES: C[N+](C)(C)CCOC(N)=O [Carbachol, carbachol]

SMILES: C[N+](C)(C)CCO [Choline, choline]
EC50 [1]: 23.2 ± 8.3 µM
Emax ([1]; read-out: Efficacy (maximal response as % of maximal ACh response), mean ± SEM): 99.4 ± 9.5%
EC50 [2]: 280 ± 20 µM
Emax ([2]; read-out: Efficacy (maximal response as % of that elicited by 1 mM ACh), mean ± SEM): 73.7 ± 5.9%
Efficacy (maximal response as % of that elicited by 1 mM ACh) (Rat α9 homomeric nAChR; Rat α9, mean ± SEM): 87.3 ± 6.0 (4) %
EC50 (Rat α9 homomeric nAChR; Rat α9, −70 mV, BAPTA-AM treated oocytes, mean ± SEM): 188 ± 40 µM
Emax (Rat α9 homomeric nAChR; read-out: Efficacy (maximal response as % of that elicited by 1 mM ACh), Rat α9, mean ± SEM): 87 ± 6%
EC50 (Chicken α9α10 nAChR [3]; [9]): 200 ± 16 µM
Emax (Chicken α9α10 nAChR [3]; mean ± SEM): 88 ± 6.7%
Efficacy (maximal response as % of that elicited by 1 mM ACh) (Rat α9α10 nAChR): 37.5 ± 2.5 (9) %
Efficacy (maximal response as % of that elicited by 1 mM ACh) (Rat α9α10 nAChR; listed as choline): 38 ± 3%
EC50 (Rat α9α10 nAChR): 541 ± 62 µM
Emax (Rat α9α10 nAChR): 37 ± 3%
EC50 ([7]; Cα9-Rα10 hybrid): 333 ± 66.2 µM
Efficacy (maximal response as % of maximal ACh response) ([7]; Cα9-Rα10 hybrid): 51.2 ± 6 (5) %
Emax ([7]; read-out: Efficacy (maximal response as % of maximal ACh response), Cα9-Rα10 hybrid): 51 ± 6%
EC50 ([4]; Rα9-Cα10 hybrid): 148 ± 12.1 µM
Efficacy (maximal response as % of responses to 1 mM ACh) ([4]; Rα9-Cα10 hybrid): 86.4 ± 2.1 (6) %
Emax ([4]; read-out: Efficacy (maximal response as % of responses to 1 mM ACh), Rα9-Cα10 hybrid): 86 ± 2%
Emax ([5]; read-out: Efficacy (maximal response as % of maximal ACh response), α9α10x chimeric receptor, mean ± SEM): 74 ± 1%
EC50 [5, 10]: 160 ± 7.6 µM
Efficacy (maximal response as % of maximal ACh response) [5, 10]: 74.3 ± 1.0 (5) %
Efficacy (responses to 10 mM choline as % of those elicited by 1 mM ACh) [8]: 7.4 ± 1.9 (5) %
Efficacy (responses to 10 mM choline as % of those elicited by 1 mM ACh) ([8]; listed as choline): 7 ± 2%
Emax (chicken short hair cells): 90 ± 6%
Emax (mouse outer hair cells): 50 ± 9%

SMILES: C[N+]1(C)CCN(c2ccccc2)CC1 [DMPP]
Efficacy (maximal response as % of that elicited by 1 mM ACh) (Chicken α9α10 nAChR [3]; Chicken α9α10, mean ± SEM): 32.6 ± 2.9 (5) %
EC50 (Chicken α9α10 nAChR [3]; [9]): 9.8 ± 0.5 µM
Efficacy (maximal response as % of that elicited by 1 mM ACh) (Rat α9α10 nAChR): 0.6 ± 0.3 (6) %
EC50 (Rat α9α10 nAChR): 21.5 ± 4 µM

SMILES: CN1CCC[C@H]1c1cccnc1 [Nicotine, nicotine]
IC50 (Chicken α9α10 nAChR [3]): 39.4 ± 3.4 µM
Agonist activity (currents elicited) (Chicken α9α10 nAChR [3]; oocytes expressing chicken α9α10): did not elicit currents
Agonist activity (currents elicited) (Rat α9α10 nAChR; oocytes expressing rat α9α10): did not elicit currents

Reference: publication PMC7892445 (Frontiers in Molecular Neuroscience, 2021)
